Tests used:
melanoma cells (B316F10) = assay: Tumor growth inhibition in C57BL/6 syngeneic mouse model implanted with melanoma cells; assay type: in vivo; conditions: 20 mg/kg orally once a day for 9 or 10 days, female C57BL/6 mice with implanted melanoma cells, tumor volume vs control group; for inhibition in vivo at 20 mg/kg: Mus musculus, po, read-out: TGI (%)
Procedure: The tumor growth inhibition effect of benzopyrene derivatives was evaluated in a C57BL/6 mouse tumor model (syngeneic mouse model) in which melanoma cells (B316F10) derived from C57BL/6 mice are implanted.
After the quarantine and acclimation period was over, a cell suspension prepared with 5×10^5 cells/0.1 mL PBS was filled into a disposable syringe and administered in an amount of 0.1 mL PBS/head subcutaneously to the right back of healthy test animals (female C57BL/6, 7 weeks old) for implantation. After cell line implantation, general symptoms were observed once daily during the engraftment and growth period. Animals with no abnormalities in their health and whose tumor volume reached 50 to 100 mm^3 when measured with a digital caliper were selected. Then, based on tumor volume and body weight, the groups were separated so that the average tumor volume per group was 70 to 100 mm^3. Ten (10) animals were separated per group, and 20 mg/kg of benzopyran derivatives were administered orally once a day for 9 or 10 days. Tumor volume was measured once every 2 or 3 days.
The measured tumor volume of the test compound administered groups was compared with that of the control group and is represented in Table 2 as the tumor growth inhibition (TGI, %).

human M2 macrophages = assay: Inhibition of human M2 macrophage activity, hCCL22 in culture supernatant by ELISA; assay type: cell-based; conditions: for inhibition at 10 µM: Macrophage, hCCL22 inhibitory activity at 10 μM, 72 hours; for EC50: hCCL22 secretion, THP-1 derived M2-like macrophages, compound present during 72 hours of differentiation
Procedure: To obtain human M2 macrophages, human monocytes (THP-1 monocyte, CD4 expression) were stabilized in a 96-well plate for 24 hours and then incubated in culture media containing 100 ng/mL phorbal 12-myristate-13-acetate (PMA; Sigma, P8139) for 24 hours to differentiate into M0 macrophages (macrophage-like phenotype). It was confirmed that differentiated M0 macrophages had reduced CD4 expression and expressed CD11b. M0 macrophages in the plate well were washed once with culture media and incubated in culture media containing 25 ng/mL hIL-4 (Peprotech, 200-04-50) and 25 ng/mL hIL-13 (Peprotech, 200-13-50) for 72 hours to differentiate into M2-like macrophages. Test compounds were diluted by concentration in M2 differentiation media and treated simultaneously during a differentiation period of 72 hours. The inhibitory effect of the test compounds on M2 macrophages was determined by measuring hCCL22 in the medium culture supernatant cultured for 72 hours using an ELISA assay (R&D system, DMD00). The results of the activity measurements are represented in Table 3 (EC50), Table 4 ([…] inhibitory activity at 5 μM) and Table 5 (hCCL22 inhibitory activity at 10 μM).

Row | Structure (SMILES) | inhibition in vivo at 20 mg/kg (melanoma cells (B316F10)) | inhibition at 10 µM (human M2 macrophages) | EC50 (human M2 macrophages) | also measured
1 | COCCOC(=O)Oc1ccc2c(c1)OC(C)(C)C1=CCn3c(=O)n(-c4ccc(C(C)=O)cc4)c(=O)n3C12 (stereo not shown) [Example 73, 2-(4-acetylphenyl)-7,7-dimethyl-1,3-dioxo-2,3,5,12b-tetrahydro-1H,7H-chromeno[4,3-c][1,2,4]triazolo[1,2-a]pyridazin-10-yl (2-methoxyethyl) carbonate] | 31% |  |  | 
2 | COCCOCCOCCOCCOC(=O)Oc1ccc2c(c1)OC(C)(C)C1=CCn3c(=O)n(-c4ccc(C(C)=O)cc4)c(=O)n3C12 (stereo not shown) [Example 75, 2-(4-acetylphenyl)-7,7-dimethyl-1,3-dioxo-2,3,5,12b-tetrahydro-1H,7H-chromeno[4,3-c][1,2,4]triazolo[1,2-a]pyridazin-10-yl (2,5,8,11-tetraoxatridecan-13-yl) carbonate] | 25.5% |  |  | 
3 | CC(=O)Oc1ccc2c(c1)OC(C)(C)C1=CCn3c(=O)n(-c4ccc(C(C)=O)cc4)c(=O)n3C12 (stereo not shown) [Example 60, 2-(4-acetylphenyl)-7,7-dimethyl-1,3-dioxo-2,3,5,12b-tetrahydro-1H,7H-chromeno[4,3-c][1,2,4]triazolo[1,2-a]pyridazin-10-yl acetate] | 56.5% |  |  | 
4 | CC(=O)c1ccc(-n2c(=O)n3n(c2=O)C2C(=CC3)C(C)(C)Oc3cc(OC(=O)[C@@H](N)CC(C)C)ccc32)cc1 (stereo partly drawn) [Example 81, 2-(4-acetylphenyl)-7,7-dimethyl-1,3-dioxo-2,3,5,12b-tetrahydro-1H,7H-chromeno[4,3-c][1,2,4]triazolo[1,2-a]pyridazin-10-yl L-leucinate 2,2,2-trifluoroacetic acid] | 25 to 66% |  |  | 
5 | CC(=O)c1ccc(-n2c(=O)n3n(c2=O)C2C(=CC3)C(C)(C)Oc3cc(OC(=O)N(C)CCC(=O)O)ccc32)cc1 (stereo not shown) [Example 92, sodium 3-((((2-(4-acetylphenyl)-7,7-dimethyl-1,3-dioxo-2,3,5,12b-tetrahydro-1H,7H-chromeno[4,3-c][1,2,4]triazolo[1,2-a]pyridazin-10-yl)oxy)carbonyl)(methyl)amino)propanoate] |  |  |  | TGI (%) (melanoma cells (B316F10)): 25.5%
6 | CC(=O)c1ccc(-n2c(=O)n3n(c2=O)C2C(=CC3)C(C)(C)Oc3cc(OC(=O)N4CCCC4)ccc32)cc1 (stereo not shown) [Example 74, 2-(4-acetylphenyl)-7,7-dimethyl-1,3-dioxo-2,3,5,12b-tetrahydro-1H,7H-chromeno[4,3-c][1,2,4]triazolo[1,2-a]pyridazin-10-yl pyrrolidine-1-carboxylate] | 25 to 66% |  |  | 
7 | CC(=O)c1ccc(-n2c(=O)n3n(c2=O)C2C(=CC3)C(C)(C)Oc3cc(OP(=O)(O)O)ccc32)cc1 (stereo not shown) [Example 69, 2-(4-acetylphenyl)-7,7-dimethyl-1,3-dioxo-2,3,5,12b-tetrahydro-1H,7H-chromeno[4,3-c][1,2,4]triazolo[1,2-a]pyridazin-10-yl dihydrogen phosphate] | 25 to 66% |  |  | 
8 | CC(=O)c1ccc(-n2c(=O)n3n(c2=O)C2C(=CC3)C(C)(C)Oc3c2cc(Cl)c(O)c3Cl)cc1 (stereo not shown) [Example 11, 2-(4-acetylphenyl)-9,11-dichloro-10-hydroxy-7,7-dimethyl-5,12b-dihydro-1H,7H-chromeno[4,3-c][1,2,4]triazolo[1,2-a]pyridazine-1,3(2H)-dione] |  | 78.1% |  | 
9 | CC1(C)Oc2cc(O)ccc2C2C1=CCn1c(=O)n(-c3cccc(F)n3)c(=O)n12 (stereo not shown) [Example 12, 2-(6-fluoropyridin-2-yl)-10-hydroxy-7,7-dimethyl-5,12b-dihydro-1H,7H-chromeno[4,3-c][1,2,4]triazolo[1,2-a]pyridazine-1,3(2H)-dione] |  | 16.8% |  | 
10 | CC1(C)Oc2cc(OP(=O)(O)O)ccc2C2C1=CCn1c(=O)n(-c3ccc(F)cc3)c(=O)n12 (stereo not shown) [Example 143, 2-(4-fluorophenyl)-7,7-dimethyl-1,3-dioxo-2,3,5,12b-tetrahydro-1H,7H-chromeno[4,3-c][1,2,4]triazolo[1,2-a]pyridazin-10-yl dihydrogen phosphate] |  |  | 9.4 µM | 
11 | CC(=O)c1ccc(-n2c(=O)n3n(c2=O)C2C(=CC3)C(C)(C)Oc3cc(N4CCC4)ccc32)cc1 (stereo not shown) [Example 141, 2-(4-acetylphenyl)-10-(azetidin-1-yl)-7,7-dimethyl-5,12b-dihydro-1H,7H-chromeno[4,3-c][1,2,4]triazolo[1,2-a]pyridazine-1,3(2H)-dione] |  | 94.2% | 7.2 µM | 
12 | CC(=O)c1ccc(-n2c(=O)n3n(c2=O)C2C(=CC3)C(C)(C)Oc3cc(NC(C)C)ccc32)cc1 (stereo not shown) [Example 29, 2-(4-acetylphenyl)-10-(isopropylamino)-7,7-dimethyl-5,12b-dihydro-1H,7H-chromeno[4,3-c][1,2,4]triazolo[1,2-a]pyridazine-1,3(2H)-dione] |  | 95.2% | 3.3 µM | 
13 | CC(=O)c1ccc(-n2c(=O)n3n(c2=O)C2C(=CC3)C(C)(C)Oc3cc(NC(C)(C)C)ccc32)cc1 (stereo not shown) [Example 30, 2-(4-acetylphenyl)-10-(tert-butylamino)-7,7-dimethyl-5,12b-dihydro-1H,7H-chromeno[4,3-c][1,2,4]triazolo[1,2-a]pyridazine-1,3(2H)-dione] |  | 97.3% | 4.3 µM | 
14 | CC(=O)c1ccc(-n2c(=O)n3n(c2=O)C2C(=CC3)C(C)(C)Oc3cc(N4CCN(C(C)=O)CC4)ccc32)cc1 (stereo not shown) [Example 19, 2-(4-acetylphenyl)-10-(4-acetylpiperazin-1-yl)-7,7-dimethyl-5,12b-dihydro-1H,7H-chromeno[4,3-c][1,2,4]triazolo[1,2-a]pyridazine-1,3(2H)-dione] |  | 18.8% |  | 
15 | CN1CCN(c2ccc3c(c2)OC(C)(C)C2=CCn4c(=O)n(-c5ccc(F)cc5)c(=O)n4C23)CC1 (stereo not shown) [Example 50, 2-(4-fluorophenyl)-7,7-dimethyl-10-(4-methylpiperazin-1-yl)-5,12b-dihydro-1H,7H-chromeno[4,3-c][1,2,4]triazolo[1,2-a]pyridazine-1,3(2H)-dione] |  |  | 25.6 µM | 
16 | CN(C)C(=O)Oc1ccc2c(c1)OC(C)(C)C1=CCn3c(=O)n(-c4ccc(C(F)(F)F)cc4)c(=O)n3C12 (stereo not shown) [Example 145, 7,7-dimethyl-1,3-dioxo-2-(4-(trifluoromethyl)phenyl)-2,3,5,12b-tetrahydro-1H,7H-chromeno[4,3-c][1,2,4]triazolo[1,2-a]pyridazin-10-yl dimethylcarbamate] |  |  | 77.3 µM | 
17 | CC(=O)c1ccc(-n2c(=O)n3n(c2=O)C2C(=CC3)C(C)(C)Oc3cc(OC(=O)C(C)(C)C)ccc32)cc1 (stereo not shown) [Example 58, 2-(4-acetylphenyl)-7,7-dimethyl-1,3-dioxo-2,3,5,12b-tetrahydro-1H,7H-chromeno[4,3-c][1,2,4]triazolo[1,2-a]pyridazin-10-yl pivalate] |  |  | 58.7 µM | 
18 | CC(=O)c1ccc(-n2c(=O)n3n(c2=O)C2C(=CC3)C(C)(C)Oc3cc(OC(=O)N[C@@H](CCCNC(=N)N)C(=O)O)ccc32)cc1 (stereo partly drawn) [Example 78, (((2-(4-acetylphenyl)-7,7-dimethyl-1,3-dioxo-2,3,5,12b-tetrahydro-1H,7H-chromeno[4,3-c][1,2,4]triazolo[1,2-a]pyridazin-10-yl)oxy)carbonyl)-L-arginine 2,2,2-trifluoroacetic acid] |  |  | 5.2 µM | 
19 | CC(=O)c1ccc(-n2c(=O)n3n(c2=O)C2C(=CC3)C(C)(C)Oc3cc(N4CCOCC4)ccc32)cc1 (stereo not shown) [Example 8, 2-(4-acetylphenyl)-7,7-dimethyl-10-morpholino-5,12b-dihydro-1H,7H-chromeno[4,3-c][1,2,4]triazolo[1,2-a]pyridazine-1,3(2H)-dione] |  | 60.7% |  | 
20 | CCN(CC)c1ccc2c(c1)OC(C)(C)C1=CCn3c(=O)n(-c4ccc(C(C)=O)cc4)c(=O)n3C12 (stereo not shown) [Example 33, 2-(4-acetylphenyl)-10-(diethylamino)-7,7-dimethyl-5,12b-dihydro-1H,7H-chromeno[4,3-c][1,2,4]triazolo[1,2-a]pyridazine-1,3(2H)-dione] |  | 96.5% | 5.8 µM | 
21 | CC(=O)c1ccc(-n2c(=O)n3n(c2=O)C2C(=CC3)C(C)(C)Oc3cc(OC(=O)N(C)CCC(=O)O)ccc32)cc1 (stereo not shown) [Example 91, 3-((((2-(4-acetylphenyl)-7,7-dimethyl-1,3-dioxo-2,3,5,12b-tetrahydro-1H,7H-chromeno[4,3-c][1,2,4]triazolo[1,2-a]pyridazin-10-yl)oxy)carbonyl)(methyl)amino)propanoic acid] | 25 to 66% |  |  | 

Source: patent publication US20250042911A1, “NOVEL BENZOPYRAN DERIVATIVE AND USE THEREOF” (SPARK BIOPHARMA, INC, priority 2021, published 2025)
